Data on one substance can be found in patent US20040072368A1, “Lipoprotein receptor” (priority 2002, published 2004).

The target of data set [1] is T1, cell surface ATP synthase (Homo sapiens, UniProt P06576).
T1 construct: endogenous in cells; host or cells: HepG2
In words: Cell surface ATP generation assay (ATP synthesis), HPLC/TLC. In kind it is cell-based. As to conditions: 10 μg/ml free-apoA-I, 10 min, HepG2. As for the experimental part:
^32Pi and ADP (panels A and B) or [α-32P] ATP (panels C, D, E and F) are added to the HepG2 cell medium as described in Experimental Procedures, and the cells are incubated for 10 min at 37° C. with 10 μg/ml apoA-I (panels B and D), 100 nM IF1 (panel E), or both IF1 […] and apoA-I at the same concentrations as above (panel F). Control experiments are performed with neither apo AI nor IF1 added into the cell medium (panel A and C). Supernatants are recovered and analysed by HPLCs.
Confluent HepG2 in 6-well plates are washed in DMEM, then incubated at 37° C. for 10 min in DMEM pH 6.6 with 0.1 μCi [α-32P] ATP for ADP generation assay, or with 0.1 μCi 32Pi and ADP (100 nM final) for ATP generation assay. Depending on the experiment, IF1 (100 nM final) or apoA-I (10 μg/ml final) are added in the reaction mixture. Supernatants are removed and analysed using two different systems: 1) by HPLC coupled to a radioactivity detector on a Whatman Partisphere 5 SAX column (Whatman International Ltd., UK) as described previously (13); calibration is done with radiolabelled nucleotides. 2) by thin layer chromatography in the solvent NaCl 2.4%/NH4OH/H2O/MeOH (12.5/15/27.5/50, v/v); radioactive spots are counted by liquid scintillation.

In data set [2] the test system is HepG2 cells. The data set can be described thus: Competitive inhibition of binding of 125I-labeled apoA-I to HepG2 cells. Also on record: species or system human. As to conditions: 1 μg/ml 125I-apoA-I, no competitor, 2 h at 4° C. The procedure:
HepG2 cells (panel A) and submitochondrial particles (panel B) are incubated for 2 h at 4° C. in the presence of 1 μg/ml ^125I-labeled apoA-1 and 5 μg/ml ^125I-labeled HDL3 respectively, in the presence of increasing concentrations of either unlabeled apoA-I (◯, panel A), unlabeled HDL3 (●, panel B), anti β-subunit of ATP synthase mouse monoclonal IgG2a (□) or purified isotype mouse IgG2a (♦). The 100% specific binding corresponds to 25,5 ng apoA-I bound per mg of cell proteins (panel A) and 2050 ng HDL3 protein bound per mg of mitochondrial proteins (panel B). Fab fragments from anti-β-subunit of ATP synthase are also used as competitors and results are identical to anti β-subunit IgG2a (data not shown). The results are representative of three independent series of experiments.
The competition experiments are performed at 4° C. for 2 h as previously described (6). […] Cells are washed twice with ice-cold PBS (maximum washing time is 15 s), lysed with 500 μl of 0.1 N NaOH, and the NaOH digest is used for radioactivity measurement and protein determination. […] Filters are used for radioactivity measurements. […] Data are expressed as the percentage of the specific binding measured in the absence of competitor versus the log of competitor concentration (in nM).

Data set [3] has as its system HepG2 cells. The data set can be described thus: TG-HDL2 internalisation assay. The settings on record: increasing free-apoA-I from 0.1 to 20 μg/ml, HepG2 or IHH cells, preliminary experiment. The class given is cell-based, human. As for the experimental part: Panel 1, 2 and 3. TG-HDL2 and LDL internalization by HepG2 cells. Cells are incubated for 10 min at 37° C. with 75 μg/ml of ^125I-TG-HDL2 (panels 1 and 3), TG-HDL2 labelled with ^3H-cholesteryl ester (panel 1 “chol”) or ^1251-LDL (panel 2). Alternatively, 10 μg/ml free-apoA-I (A, G), 100 nM ADP (B, H), both free-apoA-I and ADP at the same concentrations as above (C), 100 nM ATP (D), 0.2 U/ml apyrase (E), 100 nM EGF (F), or increasing concentrations of 2MeS-ADP (▪) and ATPγS (□) (panel 3) are added to the incubation medium. Results are expressed as the percentage of stimulation related to the value of internalisation obtained without addition of any compound (corresponding to a value of 400 ng TG-HDL2/mg of cell protein). The same experiments are performed on IHH cells with similar results (data not shown).
HepG2 cells are incubated for 10 min at 37° C. in DMEM pH 6.6 with 75 μg/ml of ^125I-TGHDL 2 and in the presence of increasing concentrations of IF, without (panel A) or with (panel B) free-apoA-I (10 μg/ml). Results are expressed as the percentage of stimulation as referred to the value of internalisation obtained without addition of any compound (corresponding to a value of 400 ng TG-HDL2/mg of cell protein).
Cells are washed three times and pre-incubated for 30 min at 37° C. in serum free DMEM. ^125I triglyceride rich-HDL2 (75 μg/ml) are added on the cells and incubated at 37° C. for various time. Depending on the experiment, free apolipoprotein A-I (10 μg/ml) or other compounds, are added to the incubation medium. At each incubation time, cells are washed with cold DMEM and the release of radioactive ligands associated to the cell surface is performed at 4° C., for 90 min in DMEM. The radioactivity internalised into the cells and the protein content is determined as in the competition assays. Non-specific internalisation is analysed in the presence of an excess of 600 μg/ml of HDL3. Results are expressed as the percentage of stimulation related to the value of internalisation obtained without addition of any compound. The same method is used for the measurement of LDL internalisation.

T1 sequence (P06576 48-529): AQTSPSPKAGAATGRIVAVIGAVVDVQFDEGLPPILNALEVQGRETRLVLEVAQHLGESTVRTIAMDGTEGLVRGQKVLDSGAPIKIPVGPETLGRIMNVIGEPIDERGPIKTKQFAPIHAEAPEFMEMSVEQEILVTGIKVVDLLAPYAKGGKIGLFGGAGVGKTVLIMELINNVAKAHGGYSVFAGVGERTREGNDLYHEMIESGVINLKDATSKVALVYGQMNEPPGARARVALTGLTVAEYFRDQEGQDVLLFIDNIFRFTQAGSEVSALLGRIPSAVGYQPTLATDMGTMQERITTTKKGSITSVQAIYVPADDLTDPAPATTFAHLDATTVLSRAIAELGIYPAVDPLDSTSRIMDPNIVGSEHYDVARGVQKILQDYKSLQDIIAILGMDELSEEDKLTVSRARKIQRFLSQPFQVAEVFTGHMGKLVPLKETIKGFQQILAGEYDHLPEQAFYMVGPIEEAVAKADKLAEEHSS
T1 sequence (P25705 44-553 partner): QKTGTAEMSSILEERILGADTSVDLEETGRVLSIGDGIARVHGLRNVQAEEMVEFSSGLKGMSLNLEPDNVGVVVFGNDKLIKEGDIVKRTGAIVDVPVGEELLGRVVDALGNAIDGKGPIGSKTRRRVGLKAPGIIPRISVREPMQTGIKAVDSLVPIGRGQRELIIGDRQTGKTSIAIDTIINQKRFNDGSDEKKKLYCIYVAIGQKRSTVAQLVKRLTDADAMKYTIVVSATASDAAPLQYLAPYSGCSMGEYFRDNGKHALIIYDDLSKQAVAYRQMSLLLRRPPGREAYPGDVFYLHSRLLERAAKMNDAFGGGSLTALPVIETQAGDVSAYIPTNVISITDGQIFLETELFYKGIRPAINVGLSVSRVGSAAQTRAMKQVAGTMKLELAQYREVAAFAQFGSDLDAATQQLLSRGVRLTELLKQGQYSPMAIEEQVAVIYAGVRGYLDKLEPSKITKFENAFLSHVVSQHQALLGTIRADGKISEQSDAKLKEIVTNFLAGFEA
T1 sequence (P36542 26-298 partner): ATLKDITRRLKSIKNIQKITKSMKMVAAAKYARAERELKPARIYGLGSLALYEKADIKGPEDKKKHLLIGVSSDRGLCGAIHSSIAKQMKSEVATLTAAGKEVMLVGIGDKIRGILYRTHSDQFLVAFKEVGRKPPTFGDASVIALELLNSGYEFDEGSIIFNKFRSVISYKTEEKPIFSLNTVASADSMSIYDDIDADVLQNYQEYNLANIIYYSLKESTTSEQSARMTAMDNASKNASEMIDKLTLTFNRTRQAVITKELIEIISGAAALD
T1 sequence (P30049 23-168 partner): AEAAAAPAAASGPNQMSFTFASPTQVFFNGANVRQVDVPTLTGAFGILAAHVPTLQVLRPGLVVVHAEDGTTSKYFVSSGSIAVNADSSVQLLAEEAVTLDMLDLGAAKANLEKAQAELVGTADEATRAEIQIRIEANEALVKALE
T1 sequence (P56381 2-51 partner limits assumed): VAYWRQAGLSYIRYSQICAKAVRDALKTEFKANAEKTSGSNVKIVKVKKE

Regarding “free-apoA-I: major apoprotein of HDL, single polypeptide chain of 243 amino acid residues, isolated from HDL3 by ion-exchange chromatography”, the “ATP synthesis from ADP plus 32Pi” value in data set [1] was “no synthesis of ATP is detected”. Besides, the 100% specific binding in data set [2] is given as 25,5 ng apoA-I bound per mg of cell proteins. Moreover, in data set [3], the “radioactivity internalised into the cells (125I-labeled TG-HDL2)” value was “increased”.
